Measurements published in patent publication US20130011538A1, “CRYSTAL OF MULTIVALENT METAL SALT OF MONATIN” (Ajinomoto Co., Inc., priority 2011, published 2013).
Counter-ions that a name gives are not always drawn.

How the values were obtained:
[1] = Transmittance of monatin solution after storage (products containing glucose); assay type: physicochemical; conditions: storage at 44° C. and 78%
Method: (§1) <Name of device> UV-visible spectrophotometer, Cary 50, manufactured by Varian Medical Systems, Inc. <Measurement wavelength>430 nm
(§2) <Sample> 1 g of sweetener composition is totally dissolved in 50 mL of water.
(§3) 1 g of each sweetener composition shown in the compositional table 1 was filled in a paper packaging material, and the packaging material was sealed with a heat seal. The composition was stored for a given period of time in a constant temperature and constant humidity device at 44° C. and 78%. Then, the total amount of the stored sample was dissolved in 50 mL of water, and the residual ratio of each monatin salt was calculated from the data obtained by HPLC analysis of the solution.

[2] = Transmittance of monatin solution after storage (products containing sucrose); assay type: physicochemical; conditions: storage at 44° C. and 78%
Method: as §1, §2
as §3, with “table 2” for “table 1”

[3] = Sweetness intensity evaluated by panelists in comparison with an aqueous solution of 5% sucrose; conditions: in comparison with the sweetness intensity of an aqueous solution of 5% sucrose; average of 7 panelists
Method: <Moisture content> 10.8 wt % (corresponding to the following equation: monatin:water=2:4) <Magnesium content> 3.6 wt % (corresponding to the following equation: monatin:magnesium=2:1)< <Characteristic X-ray diffraction peaks (2θ±0.2°, CuKα)> 8.9°, 11.2°, 15.0°, 17.8°, and 22.5° (FIG. 3)< <Crystalline form> The crystalline form in the deposited ML was a relatively small flake-like form (FIG. 4)< <Sweetness intensity> 2700 times higher (in comparison with the sweetness intensity of an aqueous solution of 5% sucrose, average of the sweetness intensities evaluated by 7 panelists)

Row | Compound | Change in color after storage [1] | Transmittance of the solution after storage (in words) [1] | Change in color after storage [2] | Transmittance of the solution after storage (in words) [2] | Sweetness intensity [3] [times]
1 | NC(CC(O)(Cc1c[nH]c2ccccc12)C(=O)O)C(=O)O [potassium salt, (2R,4R)-monatin monopotassium salt] | colored yellow | decreased | colored yellow | decreased | –
2 | NC(CC(O)(Cc1c[nH]c2ccccc12)C(=O)[O-])C(=O)O.NC(CC(O)(Cc1c[nH]c2ccccc12)C(=O)[O-])C(=O)O.O.O.O.O.[Mg+2] [Example 2, ((2R,4R)-monatin)2 magnesium salt tetrahydrate] | – | – | – | – | 2700
